Values of other authors in US20200188405A1, “COMPOSITION FOR TREATING OCULAR DISORDERS SUCH AS MACULAR DEGENERATION, RETINOPATHY AND GLAUCOMA” (RHEOSTASIS, LLC, priority 2017, published 2020).
Structures can show the parent of a compound that is named as a salt.

System: β (beta) blocker
Settings: ocular applications

## CC(C)(C)NC[C@H](O)COc1nsnc1N1CCOCC1 [Timolol Maleate]
  potency as β blocker relative to propranolol: 5-10 times
